Reference: US6818618B1, “Inhibition of smooth muscle cell migration by Tenascin-C peptides” (Cedars-Sinai Medical Center, priority 1998, dated 2004)
Entries after “also recorded” stand apart in the source; their conditions may differ.

What was measured:
[1] = test system: newborn rat SMCs migration on Tenascin-C substrate; assay: Migration assay (modified Boyden's chamber) on Tenascin-C substrate; type: cell-based
Procedure: (§1) Cell migration was measured by a modification of the Boyden's chamber method using microchemotaxis chambers (Neuro Probe Inc.). Polycarbonate filters were coated with 10 μg/ml of substrates overnight at 4° C. Newborn rat SMCs were suspended at a concentration of 10^5 cells/ml in serum-free DMEM supplemented with 1 mg/ml BSA. A volume of 50 μl of cell suspension was placed in the upper chamber, and 30 μl of 10% bovine calf serum in DMEM was placed in the lower chamber. In some experiments, cells were suspended in DMEM supplemented with 0.1 μM of the fibrinogen-like domain (Fbg-L) or 1 μM of peptide VIII before addition to the upper chamber. The chamber was incubated at 37° C. under 5% CO2 in air for 4 hours. The filter was removed, and the cells on the upper side of the filter were scraped off. The SMCs that had migrated to the lower side of the filter were fixed in methanol, stained with Diff-Quick staining solution (Baxter) and counted under a microscope.
(§2) To map the active domain of Tenascin-C that is involved in cell migration, the ability of the recombinant domains to block SMCs migration on a Tenascin-C substrate was determined. […] In FIG. 9, cell migration was measured by a modification of Boyden's chamber. […] Migrating cells were fixed and counted under a microscope. Nine high power fields (HPF) were counted for each triplicate. […]

[2] = test system: newborn rat SMCs migration on collagen substrate; assay: Migration assay (modified Boyden's chamber) on collagen substrate; type: cell-based; conditions: Fbg-L or 1 μM peptide VIII in upper chamber
Procedure: as §1, §2

newborn aortic SMCs = assay: Adhesion assay: newborn SMCs on wells coated with the substance; type: cell-based, rat; conditions: for adhesion activity relative to the Fbg-L domain: peptide coated at 10 μg/ml on tissue culture dishes; for level of adhesion of newborn SMCs to coated substrate: wells coated with 10 μg/ml substrate
Procedure: (§3) Adult Aortic SMCs were cultured as described (12). Newborn (9-day old) aortic SMCs were obtained from Dr. Stephen, M. Schwartz, of University of Washington, and subsequently cultured (13). Briefly, rat aortic SMCs were isolated by enzymatic digestion of rat aorta (Sprague-Dawley, 2 months old, 270 g). Cells were grown in DMEM/F12 media (Gibco) supplemented with 10% fetal bovine serum (Gibco). After reaching confluence, cells (between 3rd and 6th passages) were used for adhesion studies.
(§4) Microtiter plates (Falcon, Becton Dickinson, Oxnard, Calif.) were coated with the respective substrate for one (1) hour at 37° C. Nonspecific sites were blocked with 1 mg/ml BSA in PBS. […] After incubation for 60 min. at 37° C., nonadherent cells were removed with gentle washing with PBS. The number of attached cells were quantified by staining cells with 0.2% crystal violet in 20% methanol, lysing with 1% SDS, and measuring the absorbance at 550 nm (14).
To determine the concentration for the adhesion assays, microtiter plates were coated with increasing concentrations (1-100 μg/ml) of substrates, and the number of adherent cells was quantified. Adhesion of cells to Tenascin-C reached saturation levels at coating concentrations of 10 μg/ml (not shown). Therefore, all the subsequent adhesion assays were performed by coating the wells with a 10 μg/ml substrate.
The active domain of Tenascin-C was mapped using recombinant proteins corresponding to full-length Fbg-L and FN-L domains as well as FN-L subdomains 6-8, A-D, A1A2, and D. The ability of these domains, or subdomains, to interact with newborn SMCs was determined by an adhesion assay, and the results are shown in FIG. 5. In FIG. 5, a microtiter plate was coated with BSA, fibronectin (FN), intact Tenascin-C (TN), and the recombinant proteins corresponding to: the Fbg-L domain (Fbg-L), the entire FN-L repeats (AII), the constitutively spliced repeats 6-8, the alternatively spliced A-D, A1A2, and D domains. An adhesion assay was performed with newborn SMCs. Values shown are from a representative experiment in which triplicates are plotted±SEM.
The ability of the synthetic peptides to directly interact with newborn cells was determined by an adhesion assay. […] In FIG. 8, 96-well plates were coated with solutions containing BSA (C), fibronectin (FN), Tenascin-C (TN), the fibrinogen-like domain (Fbg-L), and synthetic peptides at a concentration of 10 μg/ml in PBS. An adhesion assay was performed with newborn rat SMCs. Tissue culture plates were coated with increasing concentrations of peptides from 0.1 to 10 μg/ml, and the adhesion of newborn cells was measured. Values shown are from a representative experiment in which triplicates are plotted as mean±SEM.

[3] = test system: adhesion of newborn SMCs to Tenascin-C; assay: Adhesion of newborn SMCs to Tenascin-C-coated wells in the presence of soluble agents; type: cell-based, rat; conditions: for effect on adhesion of SMCs to Tenascin-C (summary statement): concentration not given; for inhibition of attachment of SMCs to Tenascin-C: 0.1 mg/ml GRGDS peptide, higher concentrations did not significantly alter adhesion
Procedure: as §4
(§5) It has been shown that the interaction of some cells with Tenascin-C is mediated by the RGD motif (20, 23). Therefore, an adhesion assay was used to determine the role of RGD in the interaction between Tenascin-C and SMCs. The specificity of the adhesion was determined by coating the wells with the recombinant 10th-type III repeat of fibronectin (24). In FIG. 2, 96-well plates were coated with either BSA (BSA), Tenascin-C (TN), or the recombinant 10th-type III repeat of fibronectin (10III) as described for FIG. 1. Newborn SMCs were detached, washed once in adhesion buffer and added to various concentrations of the peptide GRGDS. Cells and peptides were then preincubated for 30 min. prior to plating. The values shown are the mean±SEM of triplicate samples. Nonspecific binding to control wells coated with BSA was not subtracted from each value.
(§6) In FIG. 3, 96-well plates were coated with solutions containing intact fibronectin (FN), the recombinant 10th-type III repeat of fibronectin (FN10III), or Tenascin-C (TN). […] The number of attached cells was quantified by a colorimeter. Values shown are from a representative experiment in which triplicates are plotted as mean±SEM.
(§7) In FIG. 4, 96-well plates were coated with either Tenascin-C (TN) or the recombinant tenth type III repeat of fibronectin (10III) as described for FIG. 1. […] Values shown are from the mean±SD of triplicate samples.
To distinguish between these possibilities, the recombinant FN-L proteins were labeled with ^125I, and their ability to coat the tissue culture dishes was compared to the Fbg-L domain. […] To determine whether the binding to tissue culture dishes had influenced the activity of the recombinant proteins, the ability of soluble Fbg-L or FN-L domains and subdomains to inhibit the interaction between intact Tenascin-C and SMCs was examined. […] In FIG. 6, 96-well plates were coated with fibronectin (FN), the recombinant tenth type III repeat of fibronectin (10III), or an intact Tenascin-C molecule (TN). Newborn SMCs were incubated for 15 min. at 37° C. with a solution of 200 μg/ml of a recombinant Fbg-L domain, the entire FN-L domain (FN-L), or the alternatively spliced A-D repeats (AD). […] Adhesion was measured as described above. Values shown are from representative experiments in which triplicates are plotted±SEM.
(§8) In FIG. 8(B), 96-well plates were coated with BSA, intact Tenascin-C (TN) or the fibrinogen-like domain (Fbg-L), and adhesion of newborn cells was measured in the presence of 1 μM synthetic peptides.

[4] = test system: adhesion of newborn SMCs to the Fbg-L domain; assay: Adhesion of newborn SMCs to Fbg-L domain-coated wells in the presence of soluble agents; type: cell-based, rat; conditions: EDTA or cations; not shown
Procedure: as §4, §8

[5] = test system: adhesion of SMCs to peptide VIII; assay: Adhesion of SMCs to peptide VIII-coated wells in the presence of soluble agents; type: cell-based, rat; conditions: EDTA or cations; not shown
Procedure: as §4

[6] = test system: adhesion of newborn SMCs to the recombinant 10th-type III repeat of fibronectin; assay: Adhesion of newborn SMCs to the recombinant 10th-type III repeat of fibronectin in the presence of soluble agents; type: cell-based, rat
Procedure: as §4, §5, §6, §7
To distinguish between these possibilities, the recombinant FN-L proteins were labeled with ^125I, and their ability to coat the tissue culture dishes was compared to the Fbg-L domain. […] Adhesion was measured as described above. […]

adult rat aortic SMCs = assay: Adhesion assay: adult aortic SMCs on wells coated with the substance; type: cell-based; conditions: for adhesion of adult SMCs to coated substrate: 60 min, crystal violet absorbance
Procedure: as §3, §4
Interaction between aortic SMCs and Tenascin-C was assessed by an adhesion assay. […] In FIG. 1, 96-well plates were coated with solutions containing intact fibronectin (FN), vitronectin (VN) or Tenascin-C (TN) and incubated with either adult or newborn aortic SMCs. Adhesion is measured by determining absorbance of attached cells after staining with crystal violet. Values shown are from a representative experiment in which triplicates are plotted as mean±SEM.

[7] = increasing cation concentration
[8] = various concentrations of cation

peptide VIII: 30 amino acid synthetic peptide located near the C-terminal part of the Fbg-L domain of Tenascin-C, Seq. Id. No. 8 (WYRNCHRVNLMGRYGDNNHSQGVNWFHWKG)
inhibition of SMCs chemotaxis on Tenascin-C substrate ([1]; 0.1 μM Fbg-L or 1 μM peptide VIII in upper chamber, 4 hours): ~70%
effect on migration of SMCs on collagen substrate [2]: did not interfere
adhesion activity relative to the Fbg-L domain (newborn aortic SMCs): 80%
level of adhesion of newborn SMCs to coated substrate (newborn aortic SMCs): strongly promoting newborn cell adhesion
effect on adhesion of SMCs to Tenascin-C (summary statement) [3]: completely blocked

[Mg+2] [Mg^2+]
effect on adhesion of SMCs to the Fbg-L domain [4]: promoted
effect on adhesion to peptide VIII [5]: promoted
effect on adhesion of SMCs to Tenascin-C (summary statement) [3]: promoted
increase potential for the interaction between newborn SMCs and Tenascin-C ([3]; in the presence of Mg^2+): three-fold
cation concentration giving maximal cell adhesion to Tenascin-C [3, 7]: 5 to 10 mM
effect of cation on newborn SMCs adhesion to Tenascin-C [3, 8]: increased
cation concentration giving maximal cell adhesion to the recombinant fibronectin fragment [6, 7]: 5 to 10 mM
effect of cation on newborn SMCs adhesion to the recombinant fibronectin fragment [6, 8]: increased

IX: 30 amino acid synthetic peptide from the C-terminal part of the Fbg-L domain of Tenascin-C, Seq. Id. No. 9 (FHWKGHEHSIQFAEMKLRPSNFRNLEGRRKRA)
adhesion activity relative to the Fbg-L domain (newborn aortic SMCs): 30%

GRFDS
effect of inactive control peptide on adhesion (compared with GRGDS) ([3]; not shown): no effect

Tenascin-C: intact Tenascin-C purified from conditioned media of BHK cells overexpressing Tenascin-C
SMCs chemotaxis on coated substrate compared to BSA ([1]; filters coated with 10 μg/ml substrate): stimulated
coating concentration at which cell adhesion reached saturation levels (newborn aortic SMCs; increasing coating concentrations): 10 µg/mL
adhesion of newborn SMCs to Tenascin-C relative to adult cells (newborn aortic SMCs; newborn vs adult SMCs, coated wells): 3-4 times higher
level of adhesion of newborn SMCs to coated substrate (newborn aortic SMCs): comparable to the attachment levels observed with fibronectin; also recorded: high compared to the fibronectin
adhesion of adult SMCs to Tenascin-C relative to attachment to the adhesive proteins (fibronectin, vitronectin) (adult rat aortic SMCs; coated wells): 3-4 times lower

GRGDS
inhibition of attachment of SMCs to Tenascin-C [3]: approximately 30%
inhibition of attachment of SMCs to Tenascin-C ([3]; listed as RGD peptide): 30%
inhibition of attachment of newborn SMCs to the recombinant fibronectin fragment ([6]; 0.1 mg/ml peptide, 30 min preincubation): complete inhibition

fibronectin
adhesion of adult SMCs to coated substrate (adult rat aortic SMCs): avidly adhered

B1: vitronectin: vitronectin matrix protein (protein, UniProt P04004 20-478, looked up)
Vitronectin: DQESCKGRCTEGFNVDKKCQCDELCSYYQSCCTDYTAECKPQVTRGDVFTMPEDEYTVYDDGEEKNNATVHEQVGGPSLTSDLQAQSKGNPEQTPVLKPEEEAPAPEVGASKPEGIDSRPETLHPGRPQPPAEEELCSGKPFDAFTDLKNGSLFAFRGQYCYELDEKAVRPGYPKLIRDVWGIEGPIDAAFTRINCQGKTYLFKGSQYWRFEDGVLDPDYPRNISDGFDGIPDNVDAALALPAHSYSGRERVYFFKGKQYWEYQFQHQPSQEECEGSSLSAVFEHFAMMQRDSWEDIFELLFWGRTSAGTRQPQFISRDWHGVPGQVDAAMAGRIYISGMAPRPSLAKKQRFRHRNRKGYRSQRGHSRGRNQNSRRPSRATWLSLFSSEESNLGANNYDDYRMDWLVPATCEPIQSVFFFSGDKYYRVNLRTRRVDTVDPPYPRSIAQYWLGCPAPGHL
adhesion of adult SMCs to coated substrate (adult rat aortic SMCs): avidly adhered
